One assay concerns MCF7. The assay is described as follows: cells. Conditions: Homo sapiens, MCF7, 72 h.
For another assay, the system named is MDA-MB-231. The experiment in a line: Antiproliferative activity against human MDA-MB-231 cells after 72 hrs by MTT assay. The assay is classed as functional, cell-based. Conditions: MDA-MB-231, 72 h. Background: Formazan colour is commonly taken as a measure of viable cells.
Assay [1] in a line: Cytotoxicity against in CD1 mouse mammary epithelial cells after 72 hrs by alamar blue dye assay. In kind it is cell-based. Conditions: CD1, Epithelial cell. On the technique in general: The colour change of resazurin is a common sign of viable cells or microbes.
A short description of assay [2]: Growth inhibition of human NCI60 cells. In kind it is functional.

Each structure is given as a SMILES string.

As to `COc1ccc([C@@H]2[C@@H](c3ccc(C)cc3)C(=O)N2c2cc(OC)c(OC)c(OC)c2)cc1`, in the assay with MCF7, half-maximal inhibition (IC50) was put at 315 nM. `COc1ccc([C@@H]2[C@@H](c3ccc(N)cc3)C(=O)N2c2cc(OC)c(OC)c(OC)c2)cc1O`: it took 4.5 nM to reach half-maximal inhibition in the assay with MCF7 (IC50).

In the case of `COc1ccc([C@@H]2[C@@H](c3cc(OC)c(OC)c(OC)c3)C(=O)N2c2ccccc2)cc1`, the IC50 (in general, the midpoint of a concentration-inhibition curve) in the assay on MCF7 turned out to be 43100 nM.

Regarding `COc1ccc([C@@H]2[C@@H](c3ccccc3)C(=O)N2c2cc(OC)c(OC)c(OC)c2)cc1O`, the IC50 in the assay on MDA-MB-231 is 28.8 nM; in assay [1], above 10000 nM; in the assay on MCF7, 9.6 nM. Besides, the GI50 (commonly the concentration at which growth is held to half of that of the control) in assay [2] came to 24 nM. In turn, `COc1ccc([C@@H]2[C@@H](c3ccccc3)C(=S)N2c2cc(OC)c(OC)c(OC)c2)cc1` displayed a 50% inhibitory concentration (IC50) with MCF7 of 720 nM. For the molecule `COc1ccc([C@@H]2[C@@H](c3ccc([N+](=O)[O-])cc3)C(=O)N2c2cc(OC)c(OC)c(OC)c2)cc1`, in the assay with MCF7, half-maximal inhibition (IC50) was put at 486 nM. On the same count and under the same terms, the result for `COc1ccc([C@@H]2[C@@H](c3ccc(F)c(F)c3)C(=O)N2c2cc(OC)c(OC)c(OC)c2)cc1` reads 314 nM; that for `COc1ccc([C@@H]2[C@@H](c3cccc(O)c3)C(=O)N2c2cc(OC)c(OC)c(OC)c2)cc1`, 68.9 nM; that for `COc1ccc([C@@H]2[C@@H](c3ccc(Br)cc3)C(=O)N2c2cc(OC)c(OC)c(OC)c2)cc1`, 420 nM. As to `COc1ccc([C@@H]2[C@@H](c3ccc(O)cc3)C(=O)N2c2cc(OC)c(OC)c(OC)c2)cc1`, the values for the IC50 in the assay on MDA-MB-231 and with MCF7 were 158 nM and 59.1 nM, respectively. Take `COc1ccc([C@@H]2[C@@H](c3ccccc3)C(=O)N2c2cc(OC)c(OC)c(OC)c2)cc1[N+](=O)[O-]`: it took 466 nM to reach half-maximal inhibition in the assay on MCF7 (IC50). `COc1ccc([C@@H]2[C@@H](c3cccc(OC)c3)C(=O)N2c2cc(OC)c(OC)c(OC)c2)cc1`: the IC50 with MCF7 is 326 nM. In the case of `COc1ccc([C@@H]2[C@@H](c3ccccc3OC)C(=O)N2c2cc(OC)c(OC)c(OC)c2)cc1`, it took 700 nM to reach half-maximal inhibition in the assay on MCF7 (IC50). In the case of `COc1ccc([C@@H]2[C@@H](c3ccc(O)cc3)C(=O)N2c2cc(OC)c(OC)c(OC)c2)cc1O`, the figures for the IC50 (in the assay with MDA-MB-231; in assay [1]; with MCF7) were 176 nM, above 10000 nM and 0.8 nM, respectively. The molecule `COc1ccc([C@@H]2[C@@H](c3ccc(F)cc3)C(=O)N2c2cc(OC)c(OC)c(OC)c2)cc1[N+](=O)[O-]` had an IC50 in the assay with MCF7 of 1360 nM. Turning to `COc1ccc([C@@H]2[C@@H](c3ccc(F)cc3)C(=O)N2c2cc(OC)c(OC)c(OC)c2)cc1`, the IC50 in the assay with MDA-MB-231 turned out to be 228 nM; in the assay on MCF7, 42.3 nM. `COc1ccc([C@@H]2[C@@H](c3ccc(OCc4ccccc4)cc3)C(=O)N2c2cc(OC)c(OC)c(OC)c2)cc1`: in the assay with MCF7, the IC50 was found to be 7990 nM. As for `COc1ccc([C@@H](Nc2cc(OC)c(OC)c(OC)c2)[C@@H](CO)c2ccccc2)cc1O`, the IC50 in the assay with MCF7 was 24600 nM. With `COc1ccc([C@@H]2[C@@H](c3ccc(N)cc3)C(=O)N2c2cc(OC)c(OC)c(OC)c2)cc1`, the half-maximal inhibitory concentration (IC50) in the assay on MDA-MB-231 is 224 nM; in the assay with MCF7 it was 50.8 nM. In assay [2], `COc1ccc([C@H]2C(=O)N(c3cc(OC)c(OC)c(OC)c3)[C@@H]2c2ccc(OC)cc2)cc1` came in with a GI50 of 210 nM. In the assay on MCF7, 182 nM corresponded to half-maximal inhibition (IC50). `COc1ccc([C@@H]2[C@@H](c3ccc(SC)cc3)C(=O)N2c2cc(OC)c(OC)c(OC)c2)cc1`: in the assay with MCF7, the IC50 was found to be 448 nM.

On to `COc1ccc([C@@H]2[C@@H](c3ccccc3)C(=O)N2c2cc(OC)c(OC)c(OC)c2)cc1`, for which the IC50 in the assay with MDA-MB-231 amounted to 78.2 nM; in the assay on MCF7, 34.4 nM. As to `COc1ccc([C@H]2C(=O)N(c3ccccc3)[C@@H]2c2cc(OC)c(OC)c(OC)c2)cc1`, half-maximal inhibition in the assay on MCF7 (IC50) required 37800 nM. With `COc1ccc(N2C(=O)[C@H](c3ccccc3)[C@H]2c2cc(OC)c(OC)c(OC)c2)cc1`, in the assay with MCF7, it took 43100 nM to reach half-maximal inhibition (IC50). As for `COc1ccc([C@@H]2[C@@H](c3ccc(O)cc3)C(=O)N2c2cc(OC)c(OC)c(OC)c2)cc1N`, the IC50 in the assay with MDA-MB-231 was 1680 nM; in the assay with MCF7, 39.5 nM. As to `COc1ccc([C@@H]2[C@@H](c3ccc(F)cc3)C(=O)N2c2cc(OC)c(OC)c(OC)c2)cc1O`, the IC50 was 107 nM in the assay with MDA-MB-231 and 65.7 nM with MCF7. `COc1ccc([C@@H]2[C@@H](c3ccc(C(F)(F)F)cc3)C(=O)N2c2cc(OC)c(OC)c(OC)c2)cc1` showed an IC50 in the assay on MCF7 of 1660 nM.

Regarding `COC(=O)C(c1ccccc1)[C@H](Nc1cc(OC)c(OC)c(OC)c1)c1ccc(OC)c(O)c1` (some centres not stated), the IC50 in the assay with MCF7 was above 100000 nM.

`COc1ccc([C@@H]2[C@@H](c3cc(OC)c(OC)c(OC)c3)C(=O)N2c2cc(OC)c(OC)c(OC)c2)cc1` gave a 50% inhibitory concentration (IC50) in the assay with MCF7 of 7120 nM. In the assay with MCF7, `COc1ccc([C@@H]2[C@@H](c3ccc(Cl)cc3)C(=O)N2c2cc(OC)c(OC)c(OC)c2)cc1` gave an IC50 of 305 nM. As to `COc1ccc([C@@H]2[C@@H](c3ccc(N)cc3)C(=O)N2c2cc(OC)c(OC)c(OC)c2)cc1N`, the midpoint of inhibition with MCF7, the IC50, lay at 30.9 nM. `COc1ccc([C@@H]2[C@@H](c3ccccc3)C(=O)N2c2cc(OC)c(OC)c(OC)c2)cc1N`: the figures for the IC50 in the assay on MDA-MB-231 and with MCF7 were 429 nM and 65.3 nM, respectively. As for `COc1ccc([C@@H]2[C@@H](c3ccc(Cl)c(Cl)c3)C(=O)N2c2cc(OC)c(OC)c(OC)c2)cc1`, the half-inhibitory concentration (IC50) with MCF7 stood at 3360 nM. As to `COc1ccc([C@@H]2[C@@H](c3ccc(OC)c(OC)c3)C(=O)N2c2cc(OC)c(OC)c(OC)c2)cc1`, 223 nM corresponded to half-maximal inhibition with MCF7 (IC50).

On to `COc1ccc(/C=C\c2cc(OC)c(OC)c(OC)c2)cc1O` [COMBRETASTATIN A4], for which the IC50 with MDA-MB-231 is 43 nM; in assay [1], above 10000 nM; in the assay on MCF7 it was 5.2 nM. For the molecule `COc1ccc([C@@H]2[C@@H](c3ccc(F)cc3)C(=O)N2c2cc(OC)c(OC)c(OC)c2)cc1N`, the IC50 came to 80.8 nM with MDA-MB-231 and 55.3 nM in the assay with MCF7.

These data come from ChEMBL document CHEMBL1629445, “Synthesis and evaluation of azetidinone analogues of combretastatin A-4 as tubulin targeting agents” (J Med Chem, 2010).
